Experimental data taken from publication PMC8001250 (Biomolecules, 2021).
Values after ≈ are worked out from the molar mass of the structure shown. “Also recorded” adds a separate entry of the source. Read-outs that look alike come from different tables or passages of the source. Non-standard residues stand in square brackets, D forms with d. Residues, ends and D or L forms follow the SMILES beside them. Ala(azulen-1-yl) = N[C@@H](Cc1ccc2cccccc1-2)C(=O)O

Key:
[1] = test system: A. baumannii ATCC 19609; format: cell-based; details: ATCC 19609, 18 h
Experimental: (§1) Bacteria were streaked from frozen glycerol stocks onto LB agar plates (E. coli D31, S. aureus ATCC 35556, P. aeruginosa PA-01, A. baumannii ATCC 19609). The plates were incubated at 37 °C for ~18 h to allow growth. An individual colony from each plate was transferred into individual sterile tubes containing 3 mL of Muller Hinton (MH) broth and subsequently incubated for 18 h with shaking (225 rpm) at 37 °C. An aliquot of this culture was then diluted with fresh MH broth (1:250) and further incubated with shaking (225 rpm) at 37 °C until an OD600 of 0.2–0.4 was reached. This mid-log culture was then diluted to 5 × 10^5 CFU/mL in fresh MH broth. Serially diluted peptides were dispensed in a 96-well plate such that the final concentration in each well would be in the range of 15 µM to 0.234 µM. Then, 90 µL of the freshly diluted culture was transferred to the 96-well plate, yielding a final volume of 100 µL. The 96-well plate was covered and transferred to a humidified incubator at 37 °C for 18 h. The growth and inhibition of bacterial growth were determined by measuring OD600 directly in the plate and comparing to an untreated control. The Minimum Bactericidal Concentration (MBC) was determined by transferring 1 µL of culture from each well of the MIC plate onto fresh LB agar plates and allowed to incubate overnight at 37 °C.

[2] = test system: P. aeruginosa PA-01; format: cell-based; details: PA-01, 18 h
Experimental: as §1

[3] = test system: S. aureus ATCC 35556; format: cell-based; details: ATCC 35556, 18 h
Experimental: as §1

[4] = test system: E. coli D31; details: previously reported activity of the parent peptide; ref [30]; cited from earlier work
Text: Table 2 Bacterial growth inhibition/killing concentration (µM). | column: E. coli

[5] = test system: S. aureus ATCC 35556; details: previously reported activity of the parent peptide; ref [30]; cited from earlier work
Text: Table 2 Bacterial growth inhibition/killing concentration (µM). | column: S. aureus

[6] = test system: P. aeruginosa PA-01; details: previously reported activity of the parent peptide; ref [30]; cited from earlier work
Text: Table 2 Bacterial growth inhibition/killing concentration (µM). | column: P. aeruginosa

[7] = test system: A. baumannii ATCC 19609; details: previously reported activity of the parent peptide; ref [30]; cited from earlier work
Text: Table 2 Bacterial growth inhibition/killing concentration (µM). | column: A. baumannii

[8] = test system: trypsin; assay: trypsin (50 µL of 0.001 mg/mL solution) in buffer (50 mM sodium phosphate, 100 mM NaCl, pH 7.0); details: room temperature, up to 4 hours

Molecule | MBC, A. baumannii [1] [µM] | MIC, A. baumannii [1] [µM] | MBC, P. aeruginosa [2] [µM] | MIC, P. aeruginosa [2] [µM] | MBC, S. aureus [3] [µM] | MIC, S. aureus [3] [µM] | MBC, E. coli [4] [µM] | MIC, E. coli [4] [µM] | MBC, S. aureus [5] [µM] | MIC, S. aureus [5] [µM] | MBC, P. aeruginosa [6] [µM] | MIC, P. aeruginosa [6] [µM] | MBC, A. baumannii [7] [µM] | MIC, A. baumannii [7] [µM] | fragment found [8]
CC[C@H](C)[C@H](NC(=O)[C@H](Cc1c[nH]c2ccccc12)NC(=O)[C@@H](NC(=O)[C@H](Cc1ccc2cccccc1-2)NC(=O)[C@@H]1CCCN1C(=O)[C@@H](NC(=O)[C@H](C)N)[C@@H](C)CC)[C@@H](C)CC)C(=O)N[C@@H](Cc1c[nH]c2ccccc12)C(=O)N[C@@H](CCCNC(=N)N)C(=O)N[C@@H](CC(C)C)C(=O)N[C@@H](CC(C)C)C(=O)N[C@@H](CCCNC(=N)N)C(=O)N[C@@H](CCCCN)C(=O)NCC(N)=O [Peptide Z4] (H-AIP[Ala(azulen-1-yl)]IWIWRLLRKG-NH2) | 7.50 (≈ 13.6 µg/mL) | 7.50 (≈ 13.6 µg/mL) | >15 | >15 | 7.50 (≈ 13.6 µg/mL) | 7.50 (≈ 13.6 µg/mL) |  |  |  |  |  |  |  |  | 
H-AIPWIWIWRLLRKG-NH2 [WWW] |  |  |  |  |  |  | 7.50 | 7.50 | 3.75 | 3.75 | >15 | 15.00 | 3.75 | 3.75 | 
CC[C@H](C)[C@H](NC(=O)[C@H](Cc1ccc2cccccc1-2)NC(=O)[C@@H](NC(=O)[C@H](Cc1c[nH]c2ccccc12)NC(=O)[C@@H]1CCCN1C(=O)[C@@H](NC(=O)[C@H](C)N)[C@@H](C)CC)[C@@H](C)CC)C(=O)N[C@@H](Cc1c[nH]c2ccccc12)C(=O)N[C@@H](CCCNC(=N)N)C(=O)N[C@@H](CC(C)C)C(=O)N[C@@H](CC(C)C)C(=O)N[C@@H](CCCNC(=N)N)C(=O)N[C@@H](CCCCN)C(=O)NCC(N)=O [Peptide Z6] (H-AIPWI[Ala(azulen-1-yl)]IWRLLRKG-NH2) | 7.50 (≈ 13.6 µg/mL) | 3.75 (≈ 6.82 µg/mL) | >15 | >15 | 1.88 (≈ 3.42 µg/mL) | 1.88 (≈ 3.42 µg/mL) |  |  |  |  |  |  |  |  | 
AIPWIWIWRLLRKG |  |  |  |  |  |  |  |  |  |  |  |  |  |  | AIPWIWIWR; also recorded: AIPWIWIWRLLR
CC[C@H](C)[C@H](NC(=O)[C@H](Cc1c[nH]c2ccccc12)NC(=O)[C@@H](NC(=O)[C@H](Cc1c[nH]c2ccccc12)NC(=O)[C@@H]1CCCN1C(=O)[C@@H](NC(=O)[C@H](C)N)[C@@H](C)CC)[C@@H](C)CC)C(=O)N[C@@H](Cc1ccc2cccccc1-2)C(=O)N[C@@H](CCCNC(=N)N)C(=O)N[C@@H](CC(C)C)C(=O)N[C@@H](CC(C)C)C(=O)N[C@@H](CCCNC(=N)N)C(=O)N[C@@H](CCCCN)C(=O)NCC(N)=O [Peptide Z8] (H-AIPWIWI[Ala(azulen-1-yl)]RLLRKG-NH2) | 7.50 (≈ 13.6 µg/mL) | 7.50 (≈ 13.6 µg/mL) | >15 | >15 | 15.00 (≈ 27.3 µg/mL) | 7.50 (≈ 13.6 µg/mL) |  |  |  |  |  |  |  |  | 
